Laboratory results as given in PubChem BioAssay (NCI).
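In this assay, cells in 96-well plates receive the compound at five concentrations for 48 hours. Endpoints are linearly interpolated between the surrounding concentrations. TGI is the concentration that stops growth completely.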 Where a SMILES comes first, the peptide text is derived from it. Bridges are numbered along the chain shown (N, C = ends). [ ]: non-standard residue; d: D form. Aib = CC(C)(N)C(=O)O; βAla = NCCC(=O)O

Columns and labels:
Assay in all cases: inhibition of tumour cell growth, NCI panel, 48 h
[1] = system: ACHN renal
[2] = system: SK-OV-3 ovarian
[3] = system: SR leukemia
[4] = system: HCT-15 colon
[5] = system: EKVX NSCLC
[6] = system: RPMI-8226 leukemia
[7] = system: UACC-257 melanoma
[8] = system: SNB-19 CNS
[9] = system: SW-620 colon
[10] = system: IGROV1 ovarian
[11] = system: A549 NSCLC
[12] = system: MDA-MB-435
[13] = system: M14 melanoma
[14] = system: OVCAR-4 ovarian
[15] = system: A498 renal
[16] = system: DU-145 prostate
[17] = system: HS 578T breast

| SMILES | TGI [1] [µM] | TGI [2] [µM] | TGI [3] [µM] | TGI [4] [µM] | TGI [5] [µM] | TGI [6] [µM] | TGI [7] [µM] | TGI [8] [µM] | TGI [9] [µM] | TGI [10] [µM] | TGI [11] [µM] | TGI [12] [µM] | TGI [13] [µM] | TGI [14] [µM] | TGI [15] [µM] | TGI [16] [µM] | TGI [17] [µM] |
| --- | --- | --- | --- | --- | --- | --- | --- | --- | --- | --- | --- | --- | --- | --- | --- | --- | --- |
| Cc1nc2sccn2c1C(=O)NN | > 100 | > 100 | > 100 | > 100 | > 100 | > 100 | > 100 | > 100 | > 100 | > 100 | > 100 |  |  |  |  |  |  |
| CSC12c3cc(C)n(-c4ccc([N+](=O)[O-])cc4)c3CC(C)(C)CN1C(=O)C2Oc1ccccc1 (stereo not drawn) | > 100 |  | > 100 | > 100 | > 100 | > 100 | > 100 | > 100 | > 100 | > 100 | > 100 | > 100 | > 100 | > 100 | > 100 | > 100 |  |
| COc1cc(C2C(Cl)C(=O)N2NC(=O)Cc2ccccc2)cc(Br)c1O (stereo not drawn) | > 100 | > 100 | > 100 | > 100 | > 100 | > 100 | > 100 | > 100 | > 100 | > 100 | > 100 |  | > 100 | > 100 |  |  |  |
| CC1(C)NC(=O)C(NC(=O)C(N)CC(=O)O)CCCCNC(=O)CCNC1=O (stereo not drawn) (H-DK[Aib][βAla]; lactam 2-C; configuration not given here) | > 100 | > 100 |  | > 100 | > 100 | > 100 | > 100 | > 100 | > 100 | > 100 | > 100 | > 100 | > 100 | > 100 | > 100 | > 100 | > 100 |
| CC(=O)OC[C@H]1CN(OC(C)=O)C[C@@H](n2cc(C)c(=O)[nH]c2=O)O1 | > 100 | > 100 |  | > 100 | > 100 | > 100 | > 100 | > 100 | > 100 | > 100 | > 100 | > 100 | > 100 | > 100 | > 100 | > 100 | > 100 |
| N#CC(c1ccccc1)N(CCCCCCN(C(=O)c1ccccc1)C(C#N)c1ccccc1)C(=O)c1ccccc1 (stereo not drawn) | > 100 | > 100 |  | > 100 | > 100 |  | 63.9 | > 100 | > 100 | > 100 | > 100 | 73.6 | > 100 | 91.2 | 55.9 | > 100 | 83.6 |
| O=c1c2cc(-c3ccccc3)cnc2sn1-c1ccc(Br)cc1 | > 100 | > 100 | > 100 | > 100 | > 100 | > 100 | > 100 | > 100 | > 100 | > 100 | > 100 | > 100 | > 100 | > 100 | > 100 | > 100 |  |
| C[C@H](C1CC(C)(O)C(C)(O)C(O)O1)[C@H]1CC[C@H]2[C@@H]3[C@@H]4O[C@@H]4[C@@]4(O)CC=CC(=O)[C@]4(C)[C@H]3CC[C@]12C (stereo partly drawn) | > 50 | > 50 |  | > 50 | > 50 | > 50 | > 50 | > 50 | > 50 | > 50 | > 50 | > 50 | > 50 | > 50 | > 50 | > 50 | 17.4 |
| C=CC(=O)Nc1ccc(NC(=O)C=C)c2c1C(=O)c1ccccc1C2=O | > 100 |  | > 100 | > 100 | > 100 | 21.2 | > 100 | > 100 | > 100 | > 100 | > 100 |  | > 100 |  | > 100 |  | > 100 |
| COc1ccc(C(=O)C#Cc2cn(C3CC(O)C(CO)O3)c(=O)[nH]c2=O)cc1 (stereo not drawn) | > 100 | > 100 |  | > 100 | > 100 | > 100 | > 100 | > 100 | > 100 | > 100 | > 100 | > 100 | 75 | > 100 |  | > 100 | > 100 |
| CC(/C=C/C(=O)NO)=C\C(C)C(=O)c1ccc(N(C)C)cc1 (stereo not drawn) | 0.0942 | 0.224 |  | 21.4 | 41 | 74.1 | 0.387 | 0.654 | 29.8 | 0.28 | 0.0814 | 0.0467 | 0.971 | 16.8 | 0.257 | 0.0792 | 0.133 |
| CC(=O)Nc1ccc2c3c(cc(O)c2c1)N(C(=O)CCCC(=O)N1CC(CCl)c2c1cc(O)c1cc(NC(C)=O)ccc21)CC3CCl (stereo not drawn) | < 0.0112 | > 24.6 | < 0.01 | 11.5 | 0.0925 | 0.0182 |  |  | > 100 | > 100 |  | 0.019 | 0.0175 | 0.64 |  | < 0.01 |  |
| CSc1ncnc2c1ncn2CCC(=O)O | > 100 | > 100 | > 100 |  | > 100 | > 100 | > 100 | > 100 | > 100 | > 100 | > 100 | > 100 | > 100 | > 100 | > 100 | > 100 |  |
| CC(C)CC(NC(=O)C(C)(CI)Cc1ccccc1)C(=O)Nc1ccccc1 (stereo not drawn) | > 100 | > 100 | > 100 | > 100 | > 100 | > 100 | > 100 | > 100 | > 100 | > 100 | > 100 | > 100 | > 100 | > 100 | > 100 | > 100 |  |
| COc1ccc(C(c2ccccc2)(c2ccc(OC)cc2)N2C(=O)NC3C(CCCCC(=O)NCCCCCCOP(OCCC#N)N(C(C)C)C(C)C)SCC32)cc1 (stereo not drawn) | 29.9 |  | 27.2 | 35.6 | 56.5 |  | 42.6 |  | 43.8 | 40.3 | 41.8 |  | 34.2 | 40 | 35 |  |  |
| O=C1/C(=C\c2ccc(Cl)cc2)N=C(c2ccccc2)N1n1c(=O)cn[nH]c1=S | > 100 | > 100 | 72.6 | 69.5 | > 100 | 62.1 | > 100 | > 100 | 44.4 | 66.1 | > 100 | 87 | > 100 | 69 | > 100 | 58.3 |  |
| C=CCOC(=O)CC[C@H](NC(=O)[C@@H](CCC(F)(F)F)Cc1ccc(O)cc1)C(=O)OCC=C | > 100 | > 100 | > 100 | > 100 | 73.4 | 74.6 |  | > 100 | > 100 | > 100 | > 100 | 76 | 42.6 | > 100 |  |  | > 100 |
| C=C(C)C12CC3CC(/C(=N/O)C(C1)/C3=N\O)[C@@]2(C)O (stereo partly drawn) | > 100 | > 100 | > 100 | > 100 | > 100 | > 100 | > 100 | > 100 | > 100 | > 100 | > 100 |  | > 100 |  |  |  |  |
| COc1cccc2c1c1ccc3c(c1n2C)C(=O)C=CC3=O | 28.6 | > 100 | 6.65 | 31.8 |  | 11.6 | 30.3 | > 100 | 24.7 | > 100 | > 100 |  | 27.7 | 31.8 | > 100 |  |  |
| COC(=O)c1c([N+](=O)[O-])ncn1[C@H]1OC[C@@H](OC(C)=O)[C@@H](OC(C)=O)[C@@H]1OC(C)=O | > 100 | > 100 | > 100 | > 100 | > 100 |  | > 100 | > 100 | > 100 | > 100 | > 100 | > 100 | > 100 | > 100 | > 100 | > 100 |  |
| Cc1[nH]c(=O)nc2nc3cc(Cl)cc(Cl)c3c(NC(C)(CO)CO)c12 | > 100 | > 100 |  | > 100 | > 100 |  | > 100 | > 100 | > 100 | > 100 | > 100 | > 100 | > 100 | > 100 | 99.4 | > 100 | > 100 |
| OC12c3ccccc3C1CCCCC2N1CCCC1 (stereo not drawn) | > 100 | > 100 | > 100 | > 100 | > 100 | > 100 | > 100 | > 100 | > 100 |  | > 100 |  | > 100 | > 100 |  |  |  |
| COc1ccc(CNc2cnc3cc(N)ccc3n2)cc1 | > 100 |  | > 100 | > 100 | > 100 | > 100 |  | > 100 | > 100 | > 100 | > 100 |  | > 100 | > 100 |  |  |  |
| COc1ccccc1Nc1nc2c([nH]1)c(=O)n(C)c(=O)n2C |  | > 10 | > 10 | > 10 | > 10 | > 10 | > 10 |  | > 10 | > 10 | > 10 | > 10 | > 10 | > 10 |  | > 10 |  |
| CC1CC(N)=C(C#N)C1(C#N)C#N (stereo not drawn) | > 100 | > 100 |  | > 100 | > 100 | > 100 | > 100 | > 100 | > 100 | > 100 | > 100 | > 100 | > 100 |  | > 100 | > 100 | > 100 |
| Cc1ccc(C)n1-c1ccccc1C1C=Cn2c(=O)nnc3c(OC(C)C)c(OC(C)C)c(O)c1c32 (stereo not drawn) | > 100 | > 100 |  | 60.4 | > 100 | 42.4 | > 100 | > 100 | 42.3 | > 100 | > 100 | 58.5 | > 100 | > 100 | > 100 | > 100 | > 100 |
| O=C1C2C(C(=O)N1c1ccccc1)C1(c3ccccc3)CCC2(C(=O)c2ccccc2)O1 (stereo not drawn) | > 10 | > 10 |  | > 10 | > 10 | > 10 | > 10 | > 10 | > 10 | > 10 | > 10 | > 10 | > 10 | > 10 | > 10 | > 10 | > 10 |
| O=c1nc2n3c4c(cccc4nc-2c(=O)[nH]1)CCC3 | > 100 | > 100 |  | > 100 | > 100 | > 100 | > 100 | > 100 | > 100 | > 100 | > 100 | > 100 | > 100 | > 100 |  | > 100 | > 100 |
| Cc1c(C)c2ccc(OCC(O)COC(C)C)c(C)c2oc1=O (stereo not drawn) | > 100 | > 100 | 87.4 |  | > 100 | 44.4 | 43.4 | > 100 | 93.1 | > 100 | > 100 |  | 42 | > 10 |  | > 100 | > 100 |
| O=C(Nc1ccc(C(F)(F)F)cc1)NC(F)(F)F | > 100 | > 100 | > 100 | > 100 | > 100 | > 100 | > 100 | > 100 | > 100 | > 100 | > 100 | > 100 | > 100 |  | > 100 |  | > 100 |
